According to patent US20230407243A1, “GENETIC PLATFORM TO INVESTIGATE THE FUNCTIONS OF BACTERIAL DRUG EFFLUX PUMPS” (priority 2022, published 2023):
“And” between values parts separate entries of the source, which are not always exact repeats. Equal entries are not always repeated. Where two headings read alike, the source gives them in different places.

Key:
Assay type in all cases: cell-based, Escherichia coli
EKO-35 wcaC (pCA24N) = assay: MIC of strains harboring ASKA plasmids; details: EKO-35 wcaC, 0.1 mM IPTG
K-12 (empty pCA24N) = assay: MIC of strains harboring ASKA plasmids; details: Escherichia coli, K-12 empty pCA24N, 0.1 mM IPTG, read-out: MIC
ΔtolC-Pore = details: ΔtolC Pore; for PABN MICa Alone: PAβN alone, one value per checkerboard
Method in brief: (§1)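 MHB II, CLSI microdilution checkerboard, colony-resuspension inoculum, solvent controls per plate. MIC = no growth at OD600. FICI summed from FIC of PAβN/NMP and antibiotic; <0.5 synergistic, >2.0 antagonistic.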

wild-type E. coli K-12 = details: K-12
Method in brief: as §1

ΔtolC = details: ΔtolC; for PABN MICa Alone: PAβN alone, one value per checkerboard
Method in brief: as §1

EKO-35 = details: for PABN MICa Alone / PABN MICa Combined: EKO-35; for PABN MICa Alone: PAβN alone, one value per checkerboard
Method in brief: as §1

EKO-35 acrBD408A = details: EKO-35 acrBD408A; for PABN MICa Alone: PAβN alone, one value per checkerboard
Method in brief: as §1

[1] = system: EKO-35-Pore acrBD408A (functionally inactive AcrB variant); assay: Checkerboard synergy (FICI), porinated strain; details: EKO-35 acrBD408A Pore
Method in brief: as §1

[2] = system: EKO-35 porinated strain expressing acrB; assay: Checkerboard synergy (FICI), porinated strain; details: EKO-35 acrB Pore
Method in brief: as §1

[3] = system: EKO-35 strains producing different efflux pumps (EKO-35 araC::X); assay: Checkerboard synergy (FICI) of PAβN or NMP with antibiotics; details: for PABN MICa Alone: PAβN alone, one value per checkerboard
Method in brief: as §1

Molecule: COc1cc(Cc2cnc(N)nc2N)cc(OC)c1OC [trimethoprim]
- MIC (EKO-35 wcaC (pCA24N); Chlor + (4 μg/mL)): 0.781 µg/mL
- MIC (EKO-35 wcaC (pCA24N); Escherichia coli, Chlor −, read-out: MIC): 0.781 µg/mL
- MIC (K-12 (empty pCA24N); Chlor + (25 μg/mL chloramphenicol)): 0.781 µg/mL
- MIC (K-12 (empty pCA24N); Chlor −): 0.781 µg/mL

Molecule: phenylalanine-arginine-β-naphthylamide [PAβN]
- PABN MICa Alone (ΔtolC-Pore): 64 µg/mL
- PABN MICa Alone (ΔtolC-Pore; listed as PABN): 128 µg/mL
- PABN MICa Combined (ΔtolC-Pore; with Ciprofloxacin): 64 µg/mL
- PABN MICa Combined (ΔtolC-Pore; with Erythromycin): 16 µg/mL
- PABN MICa Combined (ΔtolC-Pore; with Fusidic Acid): 32 µg/mL
- PABN MICa Combined (ΔtolC-Pore; with Linezolid): 64 µg/mL
- PABN MICa Combined (ΔtolC-Pore; with Novobiocin): 32 µg/mL
- PABN MICa Combined (ΔtolC-Pore; with Oxacillin): 64 µg/mL
- PABN MICa Alone (wild-type E. coli K-12; PAβN alone, one value per checkerboard): 256 µg/mL
- PABN MICa Combined (wild-type E. coli K-12; with Ciprofloxacin): 64 µg/mL
- PABN MICa Combined (wild-type E. coli K-12; with Erythromycin): 16 µg/mL
- PABN MICa Combined (wild-type E. coli K-12; with Fusidic Acid): 32 µg/mL
- PABN MICa Combined (wild-type E. coli K-12; with Linezolid): 16 µg/mL
- PABN MICa Combined (wild-type E. coli K-12; with Novobiocin): 32 µg/mL
- PABN MICa Combined (wild-type E. coli K-12; with Oxacillin): 32 µg/mL
- PABN MICa Alone (ΔtolC): 64 µg/mL
- PABN MICa Alone (ΔtolC; listed as PABN): 128 µg/mL
- PABN MICa Combined (ΔtolC; with Ciprofloxacin): 32 µg/mL
- PABN MICa Combined (ΔtolC; with Erythromycin): 8 µg/mL
- PABN MICa Combined (ΔtolC; with Fusidic Acid): 16 µg/mL
- PABN MICa Combined (ΔtolC; with Linezolid): 64 µg/mL
- PABN MICa Combined (ΔtolC; with Novobiocin): 16 µg/mL
- PABN MICa Combined (ΔtolC; with Oxacillin): 8 µg/mL
- PABN MICa Alone (EKO-35): 64 µg/mL
- PABN MICa Alone (EKO-35; listed as PABN): 128 µg/mL
- PABN MICa Combined (EKO-35; with Ciprofloxacin): 4 µg/mL
- PABN MICa Combined (EKO-35; with Erythromycin): 8 µg/mL
- PABN MICa Combined (EKO-35; with Fusidic Acid): 16 µg/mL
- PABN MICa Combined (EKO-35; with Linezolid): 32 µg/mL
- PABN MICa Combined (EKO-35; with Novobiocin): 8 µg/mL
- PABN MICa Combined (EKO-35; with Oxacillin): 4 µg/mL
- susceptibility to the efflux pump inhibitor alone, efflux-deficient strains vs wild-type (EKO-35; efflux-deficient strains EKO-35, EKO-35 acrBD408A, ΔtolC): exhibits antibacterial activity, which is enhanced upon efflux inactivation
- PABN MICa Alone (EKO-35 acrBD408A): 64 µg/mL
- PABN MICa Alone (EKO-35 acrBD408A; listed as PABN): 128 µg/mL
- PABN MICa Combined (EKO-35 acrBD408A; with Ciprofloxacin): 8 µg/mL
- PABN MICa Combined (EKO-35 acrBD408A; with Erythromycin): 8 µg/mL
- PABN MICa Combined (EKO-35 acrBD408A; with Fusidic Acid): 8 µg/mL
- PABN MICa Combined (EKO-35 acrBD408A; with Linezolid): 32 µg/mL
- PABN MICa Combined (EKO-35 acrBD408A; with Novobiocin): 8 µg/mL
- PABN MICa Combined (EKO-35 acrBD408A; with Oxacillin): 16 µg/mL
- PABN MICa Combined ([1]; with Ciprofloxacin): 8 µg/mL
- PABN MICa Combined ([1]; with Erythromycin): 16 µg/mL
- PABN MICa Combined ([1]; with Fusidic Acid): 8 µg/mL
- PABN MICa Combined ([1]; with Linezolid): 32 µg/mL
- PABN MICa Combined ([1]; with Novobiocin): 8 µg/mL
- PABN MICa Combined ([1]; with Oxacillin): 32 µg/mL
- PABN MICa Combined ([2]; with Erythromycin): 16 µg/mL
- PABN MICa Combined ([2]; with Fusidic Acid): 32 µg/mL
- PABN MICa Combined ([2]; with Linezolid): 16 µg/mL
- PABN MICa Combined ([2]; with Novobiocin): 16 µg/mL
- PABN MICa Combined ([2]; with Oxacillin): 16 µg/mL
- PABN MICa Combined ([3]; EKO35 araC::acrB, with Linezolid): 16 µg/mL
- PABN MICa Combined ([3]; EKO-35 acrB, with Erythromycin): 16 µg/mL
- PABN MICa Combined ([3]; EKO-35 acrB, with Fusidic Acid): 32 µg/mL
- PABN MICa Combined ([3]; EKO-35 acrB, with Novobiocin): 32 µg/mL
- PABN MICa Combined ([3]; EKO-35 acrB, with Oxacillin): 16 µg/mL
- PABN MICa Alone ([3]; EKO-35 acrD): 64 µg/mL
- PABN MICa Alone ([3]; EKO-35 acrD, listed as PABN): 128 µg/mL
- PABN MICa Combined ([3]; EKO-35 acrD, with Fusidic Acid): 8 µg/mL
- PABN MICa Combined ([3]; EKO-35 acrD, with Novobiocin): 16 µg/mL
- PABN MICa Combined ([3]; EKO-35 acrD, with Oxacillin): 4 µg/mL
- PABN MICa Alone ([3]; EKO-35 acrEF, listed as PABN): 32 µg/mL and 64 µg/mL
- PABN MICa Combined ([3]; EKO-35 acrEF, with Ciprofloxacin): 16 µg/mL
- PABN MICa Combined ([3]; EKO-35 acrEF, with Erythromycin): 16 µg/mL
- PABN MICa Combined ([3]; EKO-35 acrEF, with Fusidic Acid): 8 µg/mL
- PABN MICa Combined ([3]; EKO-35 acrEF, with Oxacillin): 16 µg/mL
- PABN MICa Alone ([3]; EKO-35 mdtEF): 64 µg/mL
- PABN MICa Combined ([3]; EKO-35 mdtEF, with Erythromycin): 16 µg/mL
- PABN MICa Combined ([3]; EKO-35 mdtEF, with Fusidic Acid): 8 µg/mL
- PABN MICa Alone ([3]; EKO-35 mexCD): 64 µg/mL
- PABN MICa Combined ([3]; EKO-35 mexCD, with Ciprofloxacin): 8 µg/mL
- PABN MICa Combined ([3]; EKO-35 mexCD, with Erythromycin): 8 µg/mL
